Results on nine compounds are retold here after patent publication US20240279176A1, “SUBSTITUTED TRICYCLIC HETEROCYCLIC COMPOUNDS AS METALLO-BETA-LACTAMASE INHIBITORS” (priority 2021, published 2024).

Each structure is given as a SMILES string. Read-outs that look alike come from different tables or passages of the source.

Assay [1] concerns Klebsiella pneumoniae ATCC BAA-2146. Description: Minimum inhibitory concentration (MIC), broth-microdilution (CLSI). The class given is cell-based. As to conditions: ATCCBAA2146, compound alone, K. pneumoniae ATCC BAA-2146, read-out: Intrinsic MIC. In general terms: Dilution methods test growth across graded concentrations, often in twofold steps.
The target of the next assay is NDM-1 (Klebsiella pneumoniae, UniProt C7C422). Description: Enzyme activity: IC50 in fluorescence assay with cephalosporin substrate FC5. It counts as biochemical. Conditions: 50 pM NDM-1, 1.5 μM FC5, 10 min pre-incubation.
A further assay addresses IMP-1 (Serratia marcescens, UniProt P52699). The description is as above. The class given is biochemical. As to conditions: 100 pM IMP-1, 10 μM FC5, 10 min pre-incubation.
The test system of assay [2] is Klebsiella pneumoniae ATCC BAA-2146. The assay can be described thus: Checkerboard synergy assay in combination with Imipenem. The class given is cell-based. Conditions: K. pneumoniae ATCC BAA-2146; for Fold reduction in Imipenem MIC in the presence of compounds (μg/mL) 4: compound at 4 μg/mL; for Fold reduction in Imipenem MIC in the presence of compounds (μg/mL) 8: compound at 8 μg/mL; for Fold reduction in Imipenem MIC in the presence of compounds (μg/mL) 16: compound at 16 μg/mL; for Fold reduction in Imipenem MIC in the presence of compounds (μg/mL) 32: compound at 32 μg/mL.

The test system is the same in assay [3]. The assay can be described thus: Checkerboard synergy assay in combination with Meropenem. It counts as cell-based. Conditions: K. pneumoniae ATCC BAA-2146; for Fold reduction in meropenem MIC in the presence of compounds (μg/mL) 4: compound at 4 μg/mL; for Fold reduction in meropenem MIC in the presence of compounds (μg/mL) 8: compound at 8 μg/mL; for Fold reduction in meropenem MIC in the presence of compounds (μg/mL) 16: compound at 16 μg/mL; for Fold reduction in meropenem MIC in the presence of compounds (μg/mL) 32: compound at 32 μg/mL.

Sequence of IMP-1 (P52699 19-246, looked up, species assumed): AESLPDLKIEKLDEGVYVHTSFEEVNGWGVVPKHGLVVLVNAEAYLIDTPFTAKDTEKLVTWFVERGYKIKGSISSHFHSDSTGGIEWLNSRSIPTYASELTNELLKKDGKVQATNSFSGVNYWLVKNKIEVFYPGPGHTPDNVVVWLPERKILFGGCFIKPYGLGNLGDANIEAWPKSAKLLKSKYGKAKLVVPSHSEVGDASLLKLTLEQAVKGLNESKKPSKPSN
Sequence of NDM-1 (C7C422 29-270, looked up): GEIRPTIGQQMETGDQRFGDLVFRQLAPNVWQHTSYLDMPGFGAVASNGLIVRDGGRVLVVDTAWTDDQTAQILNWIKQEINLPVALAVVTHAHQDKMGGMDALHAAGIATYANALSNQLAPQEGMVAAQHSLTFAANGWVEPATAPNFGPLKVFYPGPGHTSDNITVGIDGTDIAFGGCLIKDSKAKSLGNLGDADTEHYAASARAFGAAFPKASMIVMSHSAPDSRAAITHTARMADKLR

By MIC is commonly meant the smallest concentration in the dilution series that meets the test's criterion for growth inhibition. What is called IC50 is the concentration that gives 50% inhibition. With `Cc1cc(C)cc(-c2c(C(=O)O)[nH]c3c2CCc2ccccc2-3)c1` [Example 48, 3-(3,5-dimethylphenyl)-4,5-dihydro-1H-benzo[g]indole-2-carboxylic Acid], the minimal inhibitory concentration (MIC) in assay [1] (Imipenem series) was > 128 µg/mL. Also, the MIC in assay [1] (meropenem series) is > 128 µg/mL. For the same compound, the IC50 at NDM-1 came to 0.252 µM. The compound also yielded an IC50 against IMP-1 of 0.695 µM. For the same compound, in assay [2], the “Fold reduction in Imipenem MIC in the presence of compounds (μg/mL) 4” value (from here on “Fold reduction in Imipenem MIC … (μg/mL) 4”) was 4 fold, the “Fold reduction in Imipenem MIC in the presence of compounds (μg/mL) 8” value (“Fold reduction in Imipenem MIC … (μg/mL) 8” for short) is listed as 4 fold, the “Fold reduction in Imipenem MIC in the presence of compounds (μg/mL) 16” value (“Fold reduction in Imipenem MIC … (μg/mL) 16” for short) came out at 8 fold and the “Fold reduction in Imipenem MIC in the presence of compounds (μg/mL) 32” value (from here on “Fold reduction in Imipenem MIC … (μg/mL) 32”) stood at 8 fold. Also, in assay [3], the “Fold reduction in meropenem MIC in the presence of compounds (μg/mL) 4” value (from here on “Fold reduction in meropenem MIC … (μg/mL) 4”) is reported as 4 fold, the “Fold reduction in meropenem MIC in the presence of compounds (μg/mL) 8” value (from here on “Fold reduction in meropenem MIC … (μg/mL) 8”) is 4 fold, the “Fold reduction in meropenem MIC in the presence of compounds (μg/mL) 16” value (from here on “Fold reduction in meropenem MIC … (μg/mL) 16”) was found to be 4 fold and the “Fold reduction in meropenem MIC in the presence of compounds (μg/mL) 32” value (shortened to “Fold reduction in meropenem MIC … (μg/mL) 32”) stood at 8 fold.
Take `O=C(O)c1[nH]c2c(c1-c1cccc(Cl)c1Cl)CCc1ccccc1-2` [Example 50, 3-(2,3-dichlorophenyl)-4,5-dihydro-1H-benzo[g]indole-2-carboxylic Acid]: the MIC in assay [1] (Imipenem series) was > 128 µg/mL. For the same compound, the MIC in assay [1] (meropenem series) is > 128 µg/mL. At NDM-1, the midpoint of inhibition, the IC50, lay at 0.211 µM. Also, the IC50 against IMP-1 amounted to 25 µM. For the same compound, in assay [2], the “Fold reduction in Imipenem MIC … (μg/mL) 4” value turned out to be 2 fold, the “Fold reduction in Imipenem MIC … (μg/mL) 8” value came to 2 fold, the “Fold reduction in Imipenem MIC … (μg/mL) 16” value is recorded as 4 fold and the “Fold reduction in Imipenem MIC … (μg/mL) 32” value is reported as 4 fold. Moreover, in assay [3], the “Fold reduction in meropenem MIC … (μg/mL) 8” value worked out at 2 fold, the “Fold reduction in meropenem MIC … (μg/mL) 16” value stood at 2 fold and the “Fold reduction in meropenem MIC … (μg/mL) 32” value worked out at 4 fold.
For the compound `O=C(O)c1[nH]c2c(c1-c1ccncc1)CCc1ccccc1-2` [Example 51, 3-(pyridin-4-yl)-4,5-dihydro-1H-benzo[g]indole-2-carboxylic Acid], in assay [1] (Imipenem series), the MIC is > 128 µg/mL. In assay [1] (meropenem series), the MIC is > 128 µg/mL. The same compound displayed a 50% inhibitory concentration (IC50) on NDM-1 of 0.604 µM. On IMP-1, this compound registered an IC50 of 11.1 µM. For the same compound, in assay [2], the “Fold reduction in Imipenem MIC … (μg/mL) 4” value is reported as 4 fold, the “Fold reduction in Imipenem MIC … (μg/mL) 8” value is given as 4 fold, the “Fold reduction in Imipenem MIC … (μg/mL) 16” value came to 8 fold and the “Fold reduction in Imipenem MIC … (μg/mL) 32” value amounted to 8 fold. Moreover, in assay [3], the “Fold reduction in meropenem MIC … (μg/mL) 4” value was found to be 4 fold, the “Fold reduction in meropenem MIC … (μg/mL) 8” value is reported as 4 fold, the “Fold reduction in meropenem MIC … (μg/mL) 16” value is given as 8 fold and the “Fold reduction in meropenem MIC … (μg/mL) 32” value came to 8 fold.
Consider `O=C(O)c1[nH]c2c(c1-c1cc(F)cc(F)c1)CCc1ccccc1-2` [Example 52, 3-(3,5-difluorophenyl)-4,5-dihydro-1H-benzo[g]indole-2-carboxylic Acid], for which the minimal inhibitory concentration (MIC) in assay [1] (Imipenem series) is > 128 µg/mL. Besides, the MIC in assay [1] (meropenem series) is > 128 µg/mL. Also, half-maximal inhibition on NDM-1 (IC50) required 0.158 µM. The 50% inhibitory concentration (IC50) on IMP-1 turned out to be 4.87 µM. In addition, in assay [2], the “Fold reduction in Imipenem MIC … (μg/mL) 4” value is on record as 4 fold, the “Fold reduction in Imipenem MIC … (μg/mL) 8” value is 4 fold, the “Fold reduction in Imipenem MIC … (μg/mL) 16” value was determined as 8 fold and the “Fold reduction in Imipenem MIC … (μg/mL) 32” value is reported as 8 fold. In assay [3], the “Fold reduction in meropenem MIC … (μg/mL) 8” value came out at 2 fold, the “Fold reduction in meropenem MIC … (μg/mL) 16” value turned out to be 2 fold and the “Fold reduction in meropenem MIC … (μg/mL) 32” value was 4 fold.
In the case of `O=C(O)c1[nH]c2c(c1-c1cncc(F)c1)CCc1ccccc1-2` [Example 53, 3-(5-fluoropyridin-3-yl)-4,5-dihydro-1H-benzo[g]indole-2-carboxylic Acid], the minimal inhibitory concentration (MIC) in assay [1] (Imipenem series) is > 128 µg/mL. Moreover, the MIC in assay [1] (meropenem series) is > 128 µg/mL. The compound also had an IC50 on NDM-1 of 0.334 µM. It took 3.74 µM to reach half-maximal inhibition against IMP-1 (IC50). Moreover, in assay [2], the “Fold reduction in Imipenem MIC … (μg/mL) 4” value was determined as 4 fold, the “Fold reduction in Imipenem MIC … (μg/mL) 8” value is recorded as 4 fold, the “Fold reduction in Imipenem MIC … (μg/mL) 16” value is 4 fold and the “Fold reduction in Imipenem MIC … (μg/mL) 32” value turned out to be 8 fold. For the same compound, in assay [3], the “Fold reduction in meropenem MIC … (μg/mL) 8” value came to 2 fold, the “Fold reduction in meropenem MIC … (μg/mL) 16” value was 4 fold and the “Fold reduction in meropenem MIC … (μg/mL) 32” value is 4 fold.
For the compound `O=C(O)c1[nH]c2c(c1-c1cncc(Cl)c1)CCc1ccccc1-2` [Example 54, 3-(5-chloropyridin-3-yl)-4,5-dihydro-1H-benzo[g]indole-2-carboxylic Acid], the MIC in assay [1] (Imipenem series) was > 128 µg/mL. Further, in assay [1] (meropenem series), the minimum inhibitory concentration (MIC) was > 128 µg/mL. The compound further gave a half-maximal inhibitory concentration (IC50) at NDM-1 of 0.075 µM. In addition, at IMP-1, the IC50 was 1.36 µM. Besides, in assay [2], the “Fold reduction in Imipenem MIC … (μg/mL) 4” value is listed as 4 fold, the “Fold reduction in Imipenem MIC … (μg/mL) 8” value came out at 4 fold, the “Fold reduction in Imipenem MIC … (μg/mL) 16” value was found to be 8 fold and the “Fold reduction in Imipenem MIC … (μg/mL) 32” value was 8 fold. Besides, in assay [3], the “Fold reduction in meropenem MIC … (μg/mL) 4” value amounted to 4 fold, the “Fold reduction in meropenem MIC … (μg/mL) 8” value is 4 fold, the “Fold reduction in meropenem MIC … (μg/mL) 16” value is 8 fold and the “Fold reduction in meropenem MIC … (μg/mL) 32” value is 8 fold.
Turning to `COc1cc(F)ccc1-c1c(C(=O)O)[nH]c2c1CCc1ccccc1-2` [Example 56, 3-(4-fluoro-2-methoxyphenyl)-4,5-dihydro-1H-benzo[g]indole-2-carboxylic Acid], the minimal inhibitory concentration (MIC) in assay [1] (Imipenem series) was > 128 µg/mL. Also, in assay [1] (meropenem series), the minimum inhibitory concentration (MIC) is > 128 µg/mL. Moreover, the IC50 against NDM-1 turned out to be 0.143 µM. Further, half-maximal inhibition against IMP-1 (IC50) required 2.67 µM. Moreover, the “Fold reduction in Imipenem MIC … (μg/mL) 32” value in assay [2] was determined as 2 fold. For the same compound, in assay [3], the “Fold reduction in meropenem MIC … (μg/mL) 4” value is 4 fold, the “Fold reduction in meropenem MIC … (μg/mL) 8” value came to 4 fold, the “Fold reduction in meropenem MIC … (μg/mL) 16” value worked out at 4 fold and the “Fold reduction in meropenem MIC … (μg/mL) 32” value stood at 8 fold.
As to `COc1cc(Cl)cc(-c2c(C(=O)O)[nH]c3c2CCc2ccccc2-3)c1` [Example 59, 3-(3-chloro-5-methoxyphenyl)-4,5-dihydro-1H-benzo[g]indole-2-carboxylic Acid], in assay [1] (Imipenem series), the MIC was > 128 µg/mL. The MIC in assay [1] (meropenem series) was > 128 µg/mL. Moreover, the half-maximal inhibitory concentration (IC50) at NDM-1 was found to be 0.015 µM. On IMP-1, this compound returned an IC50 of 0.552 µM. Further, in assay [2], the “Fold reduction in Imipenem MIC … (μg/mL) 4” value stood at 4 fold, the “Fold reduction in Imipenem MIC … (μg/mL) 8” value is on record as 4 fold, the “Fold reduction in Imipenem MIC … (μg/mL) 16” value worked out at 8 fold and the “Fold reduction in Imipenem MIC … (μg/mL) 32” value was 16 fold. Moreover, in assay [3], the “Fold reduction in meropenem MIC … (μg/mL) 4” value is 4 fold, the “Fold reduction in meropenem MIC … (μg/mL) 8” value turned out to be 8 fold, the “Fold reduction in meropenem MIC … (μg/mL) 16” value came out at 8 fold and the “Fold reduction in meropenem MIC … (μg/mL) 32” value is reported as 16 fold.
For the compound `COc1cc(OC)cc(-c2c(C(=O)O)[nH]c3c2CCc2ccccc2-3)c1` [Example 61, 3-(3,5-dimethoxyphenyl)-4,5-dihydro-1H-benzo[g]indole-2-carboxylic Acid], the minimal inhibitory concentration (MIC) in assay [1] (Imipenem series) is > 128 µg/mL. In assay [1] (meropenem series), the MIC was > 128 µg/mL. The half-maximal inhibitory concentration (IC50) against NDM-1 is 0.049 µM. This compound had an IC50 at IMP-1 of 0.495 µM. Further, in assay [2], the “Fold reduction in Imipenem MIC … (μg/mL) 4” value is on record as 4 fold, the “Fold reduction in Imipenem MIC … (μg/mL) 8” value was 8 fold, the “Fold reduction in Imipenem MIC … (μg/mL) 16” value worked out at 8 fold and the “Fold reduction in Imipenem MIC … (μg/mL) 32” value is given as 8 fold. In addition, in assay [3], the “Fold reduction in meropenem MIC … (μg/mL) 4” value is given as 4 fold, the “Fold reduction in meropenem MIC … (μg/mL) 8” value turned out to be 4 fold, the “Fold reduction in meropenem MIC … (μg/mL) 16” value turned out to be 8 fold and the “Fold reduction in meropenem MIC … (μg/mL) 32” value is given as 8 fold.
